According to paper PMC10008561 (Nature Communications, 2023):
“And” between values parts separate entries of the source, which are not always exact repeats. Equal values may be shown once. Read-outs that look alike come from different tables or passages of the source.

Columns and labels:
[1] = ref Liu et al., Neuropsychopharmacology, 2018, Abraham et al., cited from earlier work
human KOR = human KOR (Homo sapiens, UniProt P41145); experiment: cell-based; parameters: expressed in transfected cells; host or cells: HEK 293T (ATCC, CRL-3216); settings: HTLA
Sequence of human KOR (P41145 whole entry): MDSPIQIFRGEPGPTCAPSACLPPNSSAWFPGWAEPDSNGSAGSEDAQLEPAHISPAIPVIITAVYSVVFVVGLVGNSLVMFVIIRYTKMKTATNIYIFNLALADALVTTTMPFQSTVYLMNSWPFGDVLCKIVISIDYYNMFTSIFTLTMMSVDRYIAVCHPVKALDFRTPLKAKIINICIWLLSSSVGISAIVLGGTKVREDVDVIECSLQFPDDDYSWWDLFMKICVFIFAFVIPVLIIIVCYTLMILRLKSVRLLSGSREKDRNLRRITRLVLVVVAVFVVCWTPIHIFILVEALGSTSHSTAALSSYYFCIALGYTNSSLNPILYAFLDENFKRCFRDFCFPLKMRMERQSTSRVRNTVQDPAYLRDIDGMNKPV

human KOR (Gz) [2] = molecular target: T1, human KOR (Gz) (Homo sapiens, UniProt P41145, G319L); experiment: cell-based
T1 construct: expressed in transfected cells; host or cells: HEK293T
T1 sequence (P41145 whole entry G319L): as the sequence (P41145 whole entry) above, with G319L counted along it

human KOR (Gz) [3] = molecular target: T2, human KOR (Gz) (Homo sapiens, UniProt P41145, Y320L); experiment: cell-based
T2 construct: expressed in transfected cells; host or cells: HEK293T
T2 sequence (P41145 whole entry Y320L): as the sequence (P41145 whole entry) above, with Y320L counted along it

human KOR (Gz) [4] = molecular target: T3, human KOR (Gz) (Homo sapiens, UniProt P41145, T94V); experiment: cell-based
T3 construct: expressed in transfected cells; host or cells: HEK293T
T3 sequence (P41145 whole entry T94V): as the sequence (P41145 whole entry) above, with T94V counted along it

human KOR (Gz) [5] = molecular target: T4, human KOR (Gz) (Homo sapiens, UniProt P41145); experiment: cell-based
T4 construct: expressed in transfected cells; host or cells: HEK293T
T4 sequence (P41145 whole entry): as the sequence (P41145 whole entry) above

human KOR (Gz) [6] = molecular target: T5, human KOR (Gz) (Homo sapiens, UniProt P41145, F283A); experiment: cell-based
T5 construct: expressed in transfected cells; host or cells: HEK293T
T5 sequence (P41145 whole entry F283A): as the sequence (P41145 whole entry) above, with F283A counted along it

human KOR (Gz) [7] = molecular target: T6, human KOR (Gz) (Homo sapiens, UniProt P41145, Q115N); experiment: cell-based
T6 construct: expressed in transfected cells; host or cells: HEK293T
T6 sequence (P41145 whole entry Q115N): as the sequence (P41145 whole entry) above, with Q115N counted along it

human KOR (Gz) [8] = molecular target: T7, human KOR (Gz) (Homo sapiens, UniProt P41145, L253A); experiment: cell-based; settings: HEK-293T
T7 construct: expressed in transfected cells; host or cells: HEK293T
T7 sequence (P41145 whole entry L253A): as the sequence (P41145 whole entry) above, with L253A counted along it

human KOR (Gz) [9] = molecular target: T8, human KOR (Gz) (Homo sapiens, UniProt P41145, N322A); experiment: cell-based
T8 construct: expressed in transfected cells; host or cells: HEK293T
T8 sequence (P41145 whole entry N322A): as the sequence (P41145 whole entry) above, with N322A counted along it

human KOR (Gz) [10] = molecular target: T9, human KOR (Gz) (Homo sapiens, UniProt P41145, Y139L); experiment: cell-based
T9 construct: expressed in transfected cells; host or cells: HEK293T
T9 sequence (P41145 whole entry Y139L): as the sequence (P41145 whole entry) above, with Y139L counted along it

human KOR (Gz) [11] = molecular target: T10, human KOR (Gz) (Homo sapiens, UniProt P41145, K227A); experiment: cell-based
T10 construct: expressed in transfected cells; host or cells: HEK293T
T10 sequence (P41145 whole entry K227A): as the sequence (P41145 whole entry) above, with K227A counted along it

human KOR (Gz) [12] = molecular target: T11, human KOR (Gz) (Homo sapiens, UniProt P41145, D266A); experiment: cell-based
T11 construct: expressed in transfected cells; host or cells: HEK293T
T11 sequence (P41145 whole entry D266A): as the sequence (P41145 whole entry) above, with D266A counted along it

human KOR (Gz) [13] = molecular target: T12, human KOR (Gz) (Homo sapiens, UniProt P41145, R170A); experiment: cell-based
T12 construct: expressed in transfected cells; host or cells: HEK293T
T12 sequence (P41145 whole entry R170A): as the sequence (P41145 whole entry) above, with R170A counted along it

human KOR (Gz) [14] = molecular target: T13, human KOR (Gz) (Homo sapiens, UniProt P41145, D105A); experiment: cell-based
T13 construct: expressed in transfected cells; host or cells: HEK293T
T13 sequence (P41145 whole entry D105A): as the sequence (P41145 whole entry) above, with D105A counted along it

human KOR (Gz) [15] = molecular target: T14, human KOR (Gz) (Homo sapiens, UniProt P41145, R274A); experiment: cell-based
T14 construct: expressed in transfected cells; host or cells: HEK293T
T14 sequence (P41145 whole entry R274A): as the sequence (P41145 whole entry) above, with R274A counted along it

human KOR (Gz) [16] = molecular target: T15, human KOR (Gz) (Homo sapiens, UniProt P41145, F114L); experiment: cell-based
T15 construct: expressed in transfected cells; host or cells: HEK293T
T15 sequence (P41145 whole entry F114L): as the sequence (P41145 whole entry) above, with F114L counted along it

human KOR (Gz) [17] = molecular target: T16, human KOR (Gz) (Homo sapiens, UniProt P41145, N141A); experiment: cell-based
T16 construct: expressed in transfected cells; host or cells: HEK293T
T16 sequence (P41145 whole entry N141A): as the sequence (P41145 whole entry) above, with N141A counted along it

human KOR (Gz) [18] = molecular target: T17, human KOR (Gz) (Homo sapiens, UniProt P41145, D334A); experiment: cell-based
T17 construct: expressed in transfected cells; host or cells: HEK293T
T17 sequence (P41145 whole entry D334A): as the sequence (P41145 whole entry) above, with D334A counted along it

human KOR (Gz) [19] = molecular target: T18, human KOR (Gz) (Homo sapiens, UniProt P41145, R271A); experiment: cell-based
T18 construct: expressed in transfected cells; host or cells: HEK293T
T18 sequence (P41145 whole entry R271A): as the sequence (P41145 whole entry) above, with R271A counted along it

human KOR (Gz) [20] = molecular target: T19, human KOR (Gz) (Homo sapiens, UniProt P41145, K200A); experiment: cell-based
T19 construct: expressed in transfected cells; host or cells: HEK293T
T19 sequence (P41145 whole entry K200A): as the sequence (P41145 whole entry) above, with K200A counted along it

human KOR (Gz) [21] = molecular target: T20, human KOR (Gz) (Homo sapiens, UniProt P41145, D155A); experiment: cell-based; settings: HEK-293T
T20 construct: expressed in transfected cells; host or cells: HEK293T
T20 sequence (P41145 whole entry D155A): as the sequence (P41145 whole entry) above, with D155A counted along it

human KOR (Gz) [22] = molecular target: T21, human KOR (Gz) (Homo sapiens, UniProt P41145, N326A); experiment: cell-based
T21 construct: expressed in transfected cells; host or cells: HEK293T
T21 sequence (P41145 whole entry N326A): as the sequence (P41145 whole entry) above, with N326A counted along it

human KOR (Gz) [23] = molecular target: T22, human KOR (Gz) (Homo sapiens, UniProt P41145, E297A); experiment: cell-based
T22 construct: expressed in transfected cells; host or cells: HEK293T
T22 sequence (P41145 whole entry E297A): as the sequence (P41145 whole entry) above, with E297A counted along it

[24] = read-out: KOR WT_Arrestin response (Figure S4D)
[25] = read-out: Tango response (Figure S4C)
[26] = HEK-293T, read-out: Gz (Figure 5A concentration-response, replicate values)

Compound: CN(C(=O)/C=C/c1ccoc1)[C@@H]1CC[C@@]2(O)[C@H]3Cc4ccc(O)c5c4[C@@]2(CCN3CC2CC2)[C@H]1O5 [Nalfurafine, nalfurafine]
- side effects ([1]; high dose 20-50 μg/Kg): starts causing motor incoordination, sedation, and aversion effects
- side effects (dysphoria, sedation, hallucinations) ([1]; low dose 2.5-20 μg/Kg): does not produce typical
- Emax (human KOR): 100 ± 5%
- activation at 3.162 pM (human KOR; [24]): 21.6%
- activation at 10 pM (human KOR; [24]): 33.5%
- activation at 31.62 pM (human KOR; [24]): 37.7%
- activation at 0.0001 µM (human KOR; [24]): 65.6%
- activation at 0.001 µM (human KOR; [24]): 67.9%
- activation at 0.01 µM (human KOR; [24]): 76.6%
- activation at 0.1 µM (human KOR; [24]): 97.1%
- activation at 1 µM (human KOR; [24]): 106%
- activation at […] (human KOR; [24]): 68.4% and 74.4% and 96.9% and 96.5%
- activation at 10 pM (human KOR; read-out: Tango response): 21.8%
- activation at 31.62 pM (human KOR; read-out: Tango response): 35.1%
- activation at 0.0001 µM (human KOR; read-out: Tango response): 39.8%
- activation at 0.001 µM (human KOR; read-out: Tango response): 74.2%
- activation at 0.01 µM (human KOR; read-out: Tango response): 80.9%
- activation at 1 µM (human KOR; read-out: Tango response): 106%
- activation at […] (human KOR; read-out: Tango response): 71% and 100%
- activation at 0.0001 µM (human KOR; [25]): 36.1%
- activation at 0.001 µM (human KOR; [25]): 74.1%
- activation at 0.1 µM (human KOR; [25]): 87.2%
- activation at 1 µM (human KOR; [25]): 87.7%
- activation at 10 µM (human KOR; [25]): 121%
- activation at […] (human KOR; [25]): 77.4% and 111%
- FC vs wild type (human KOR (Gz) [2]): 162
- FC vs wild type (human KOR (Gz) [3]): 407
- Emax (human KOR (Gz) [3]; HEK-293T): 93.7%
- FC vs wild type (human KOR (Gz) [4]): 6
- Emax% (human KOR (Gz) [5]): 96.48%
- FC vs wild type (human KOR (Gz) [5]): 1
- Emax (human KOR (Gz) [5]; HEK-293T): 96.7%
- activation at 10 pM (human KOR (Gz) [5]; [26]): 45.5%
- activation at 0.1 µM (human KOR (Gz) [5]; [26]): 99.7%
- activation at 1 µM (human KOR (Gz) [5]; [26]): 111%
- activation at 10 µM (human KOR (Gz) [5]; [26]): 97.8%
- FC vs wild type (human KOR (Gz) [6]): 44
- Emax (human KOR (Gz) [6]; HEK-293T): 106%
- FC vs wild type (human KOR (Gz) [7]): 39
- Emax (human KOR (Gz) [7]; HEK-293T): 78.7%
- Emax (human KOR (Gz) [8]): 112%
- FC vs wild type (human KOR (Gz) [9]): 1259
- Emax (human KOR (Gz) [9]; HEK-293T): 81.8%
- FC vs wild type (human KOR (Gz) [10]): 4
- Emax (human KOR (Gz) [10]; HEK-293T): 103%
- FC vs wild type (human KOR (Gz) [11]): 3
- FC vs wild type (human KOR (Gz) [12]): 1259
- Emax (human KOR (Gz) [12]; HEK-293T): 112%
- FC vs wild type (human KOR (Gz) [13]): 13 and ~10
- Emax (human KOR (Gz) [13]; HEK-293T): 96%
- FC vs wild type (human KOR (Gz) [14]): 479
- Emax (human KOR (Gz) [14]; HEK-293T): 103%
- FC vs wild type (human KOR (Gz) [15]): 977
- Emax (human KOR (Gz) [15]; HEK-293T): 99.1%
- FC vs wild type (human KOR (Gz) [16]): 54
- Emax (human KOR (Gz) [16]; HEK-293T): 85.6%
- FC vs wild type (human KOR (Gz) [17]): 93
- Emax (human KOR (Gz) [17]; HEK-293T): 98.3%
- FC vs wild type (human KOR (Gz) [18]): 112
- Emax (human KOR (Gz) [18]; HEK-293T): 99.2%
- FC vs wild type (human KOR (Gz) [19]): 398
- Emax (human KOR (Gz) [19]; HEK-293T): 110%
- FC vs wild type (human KOR (Gz) [20]): 9
- Emax (human KOR (Gz) [20]; HEK-293T): 108%
- Emax (human KOR (Gz) [21]): 92.7%
- FC vs wild type (human KOR (Gz) [22]): 69
- Emax (human KOR (Gz) [22]; HEK-293T): 96.9%
- FC vs wild type (human KOR (Gz) [23]): 1
- Emax (human KOR (Gz) [23]; HEK-293T): 103%
